# Reference: US9447132B2 (priority 2013, dated 2016)
# Marks after values point to notes of the source that are not given here.
# Columns and labels:
# [1] = Buffer stability (stability of the compounds in the absence of cells); format: physicochemical; conditions: 24 hr
# [2] = tested on: HCV replicon; test: Predicted EC50 against HCV replicon in primary human hepatocytes; format: cell-based; conditions: Hepatitis C virus, Hepatocyte
# [3] = tested on: human liver hepatocytes; test: Triphosphate levels (Formula IV, GS-7977-TP) in human hepatocytes; format: in vitro ADME; conditions: for time at which peak levels were obtained: 5 μM parent, 48 hours of incubation
# Protocol: […] Cells were washed twice with cold PBS.
# Supernatants were removed and analyzed by LC-MS/MS. […] Samples were centrifuged at 3000 rpm for 15 minutes. Supernatants were removed and analyzed by LC-MS/MS.
# [4] = tested on: primary hepatocytes; test: Formula IV concentration from Formula II dosing in primary hepatocytes; format: in vitro ADME, human
# Description: The general methods of Example 13 were used to determine compound concentrations.
# [5] = tested on: human liver hepatocyte; test: Half-life of active triphosphate in human hepatocytes; format: in vitro ADME; conditions: for t1/2 (hr): Human hepatocytes, parenthesis = 95% confidence interval
# Protocol: (§1) Human hepatocyte cells used for half-life determinations were human liver hepatocyte 12-well format cells and were seeded at 0.67 million cells per well. Canine hepatocyte cells used for half-life determinations were beagle dog liver hepatocyte 12-well format cells and were seeded at 0.67 million cells per well. Monkey hepatocyte cells used for half-life determinations were Cynomolgus monkey liver hepatocyte 12-well format cells, and were seeded at 0.9 million cells per well. Rat hepatocyte cells for half-life determinations were Sprague-Dawley (SD) rat liver hepatocyte 12-well format cells, and were seeded at 0.67 million cells per well. All cells were obtained from Life Technologies.
# [6] = tested on: beagle dog liver hepatocyte; test: Half-life of active triphosphate in dog hepatocytes; format: in vitro ADME; conditions: parenthesis = 95% confidence interval
# Protocol: as §1
# [7] = tested on: Cynomolgus monkey liver hepatocyte; test: Half-life of active triphosphate in monkey hepatocytes; format: in vitro ADME; conditions: parenthesis = 95% confidence interval
# Protocol: as §1
# [8] = tested on: Sprague-Dawley (SD) rat liver hepatocyte; test: Half-life of active triphosphate in rat hepatocytes; format: in vitro ADME; conditions: parenthesis = 95% confidence interval
# Protocol: as §1
# [9] = tested on: hepatocytes (human, dog, monkey and rat); test: Half-lives of active triphosphate in hepatocytes from four species; format: in vitro ADME; conditions: across hepatocytes from four species (human, dog, monkey, rat)
# Protocol: as §1
# [10] = tested on: HCV genotype 1, 2 or 3; conditions: once-daily 300 mg for seven days, treatment naïve patients; cited from earlier work
# [11] = tested on: HCV; conditions: several large clinical trials; cited from earlier work
# [12] = tested on: HCV genotype 1; conditions: cited from earlier work
# [13] = 2 hr incubation with 5 μM Formula II
# [14] = 4 hr incubation with 5 μM Formula II
# [15] = 8 hr incubation with 5 μM Formula II
# [16] = 25 hr incubation with 5 μM Formula II
# [17] = 48 hr incubation with 5 μM Formula II
compound,measurement,setting,value
[2H]c1cn([C@@H]2O[C@H](C([2H])([2H])OP(=O)(N[C@@H](C)C(=O)OC(C)C)Oc3ccccc3)[C@@H](O)[C@@]2(C)O)c(=O)[nH]c1=O (stereo partly drawn) [Formula II],Buffer Stability Parent T24 hr 37° C.,[1]; Table 1,97
same,Buffer Stability Parent T24 hr 37° C.,[1]; Table 2,97
same,EC50,[2],6.25 to 10 nM
C[C@]1(O)C(n2ccc(=O)[nH]c2=O)OC(COP(=O)(O)OP(=O)(O)OP(=O)(O)O)[C@H]1O (stereo partly drawn) [Formula IV],time at which peak levels were obtained,[3]; human hepatocytes,> 48 h
same,Formula IV (pmol/million cells) rep 1,[3]; [13],72.1 pmol/million cells
same,Formula IV (pmol/million cells) rep 2,[3]; [13],71.5 pmol/million cells
same,Formula IV (pmol/million cells) rep 3,[3]; [13],67.9 pmol/million cells
same,Formula IV (pmol/million cells) rep 1,[3]; [14],130 pmol/million cells
same,Formula IV (pmol/million cells) rep 2,[3]; [14],129 pmol/million cells
same,Formula IV (pmol/million cells) rep 3,[3]; [14],129 pmol/million cells
same,Formula IV (pmol/million cells) rep 1,[3]; [15],218 pmol/million cells
same,Formula IV (pmol/million cells) rep 2,[3]; [15],217 pmol/million cells
same,Formula IV (pmol/million cells) rep 3,[3]; [15],236 pmol/million cells
same,Formula IV (pmol/million cells) Mean+StDev,[3]; [16],486 pmol/million cells
same,Formula IV (pmol/million cells) rep 1,[3]; [16],506 pmol/million cells
same,Formula IV (pmol/million cells) rep 2,[3]; [16],465 pmol/million cells
same,Formula IV (pmol/million cells) rep 3,[3]; [16],488 pmol/million cells
same,Formula IV (pmol/million cells) rep 1,[3]; [17],619 pmol/million cells
same,Formula IV (pmol/million cells) rep 2,[3]; [17],581 pmol/million cells
same,Formula IV (pmol/million cells) rep 3,[3]; [17],575 pmol/million cells
same,Formula IV concentration higher than in Huh-luc/neo cells,"[4]; 50 nM Formula II, primary hepatocytes vs Huh-luc/neo cells",5- to 8 fold
same,level of Formula IV,"[4]; Formula II at 50 nM, primary hepatocytes, 24 hours",9.2-16.2 pmol/million cells
same,t1/2 (hr),[5],27.6 (26.0-29.4)^a hr
same,half-life,[5]; human hepatocytes,> 24 h
same,t1/2 (hr),[6],29.6 (22.0-45.4) hr
same,t1/2 (hr),[7],14.5 (11.8-18.9) hr
same,t1/2 (hr),[8],10.2 (8.6-12.5) hr
same,half-lives range,[9],10 to 30 h
"C[C@@]1(F)[C@H](O)[C@@H](COP(=O)(O)OP(=O)(O)OP(=O)(O)O)O[C@H]1n1ccc(=O)[nH]c1=O [GS-7977-TP, reference compound]",time at which peak levels were obtained,[3]; human hepatocytes,24 h
same,"intracellular conversion to triphosphate, greater than that of Formula IV from Formula II","[3]; over a 48 hour period, 5 μM, human hepatocytes",2 fold
same,t1/2 (hr),[5],22.6 (21.5-23.9) hr
same,t1/2 (hr),[6],17.7 (15.0-21.5) hr
same,t1/2 (hr),[7],9.3 (7.9-11.4) hr
same,t1/2 (hr),[8],7.6 (6.4-9.3) hr
same,half-lives range,[9],8 to 23 h
CC(C)OC(=O)[C@@H](C)N[P@@](=O)(OC[C@H]1O[C@@H](n2ccc(=O)[nH]c2=O)[C@](C)(Cl)[C@@H]1O)Oc1ccccc1 [IDX21437],mean maximum reduction in viral load,[10],4.2-4.3 log 10 IU/mL
"CC(C)OC(=O)[C@H](C)N[P@](=O)(OC[C@H]1O[C@@H](n2ccc(=O)[nH]c2=O)[C@@](C)(F)C1O)Oc1ccccc1 (stereo partly drawn) [Sovaldi, Sofosbuvir]","sustained viral response (SVR) of twelve weeks, trial participants",[11],50-90%
CC(C)OC(=O)[C@H](C)NP(=S)(OC[C@H]1O[C@@H](n2ccc(=O)[nH]c2=O)[C@](C)(O)[C@@H]1O)Oc1ccccc1 (stereo partly drawn) [VX-135],completion of treatment rate (SVR4),"[12]; eleven patients who completed 12 weeks of treatment, with daclatasvir",91%
same,sustained viral response rate four weeks after completion of treatment (SVR4),"[12]; intent-to-treat, treatment-naïve genotype 1, 200 mg VX-135 in combination with daclatasvir",83%
